Results published in the NIST ThermoML archive (doi:10.1021/acs.jced.6b00391).
Several values for one entry are separate records, joined by “and”; a condition that tells them apart may be missing. Identical values can stand only once. Numbers after ± are expanded uncertainties.

Experiments:
[1] = Liquid, Capillary tube (Ostwald / Ubbelohde) method
[2] = xn = mol fraction of the nth substance listed; conditions: Liquid, Capillary tube (Ostwald / Ubbelohde) method

CCCCCCCCCCCC [dodecane]
[1], 5000 kPa
Conditions | viscosity
303.2 K | 1.334 ± 0.017 mPa·s and 1.314 ± 0.014 mPa·s
313.2 K | 1.122 ± 0.016 mPa·s and 1.116 ± 0.013 mPa·s
323 K | 0.97 ± 0.014 mPa·s and 0.9626 ± 0.011 mPa·s
333.1 K | 0.8519 ± 0.013 mPa·s and 0.8434 ± 0.0096 mPa·s
343.3 K | 0.7442 ± 0.013 mPa·s and 0.7445 ± 0.0087 mPa·s
353.3 K | 0.6736 ± 0.012 mPa·s and 0.6661 ± 0.0081 mPa·s
363.2 K | 0.6075 ± 0.012 mPa·s and 0.5969 ± 0.0076 mPa·s
373.3 K | 0.5467 ± 0.012 mPa·s and 0.5397 ± 0.0073 mPa·s
383.2 K | 0.4902 ± 0.011 mPa·s and 0.4913 ± 0.007 mPa·s
393.2 K | 0.4472 ± 0.011 mPa·s and 0.448 ± 0.0068 mPa·s
403.2 K | 0.4112 ± 0.011 mPa·s and 0.4118 ± 0.0066 mPa·s
413.2 K | 0.3785 ± 0.011 mPa·s and 0.3799 ± 0.0064 mPa·s
423.2 K | 0.3508 ± 0.011 mPa·s and 0.3516 ± 0.0063 mPa·s
433.2 K | 0.3277 ± 0.011 mPa·s and 0.3259 ± 0.0062 mPa·s
443.4 K | 0.2974 ± 0.011 mPa·s and 0.3041 ± 0.0062 mPa·s
453.1 K | 0.2822 ± 0.011 mPa·s and 0.2827 ± 0.0061 mPa·s
463.2 K | 0.2604 ± 0.011 mPa·s and 0.2619 ± 0.0061 mPa·s
473.2 K | 0.244 ± 0.011 mPa·s and 0.244 ± 0.006 mPa·s
483.1 K | 0.225 ± 0.011 mPa·s and 0.2259 ± 0.006 mPa·s
493.2 K | 0.2076 ± 0.011 mPa·s and 0.2072 ± 0.0059 mPa·s
503.2 K | 0.1964 ± 0.011 mPa·s and 0.1969 ± 0.0059 mPa·s
513.1 K | 0.1846 ± 0.011 mPa·s and 0.1835 ± 0.0059 mPa·s
523.2 K | 0.1722 ± 0.011 mPa·s and 0.1698 ± 0.0059 mPa·s
533.1 K | 0.1608 ± 0.011 mPa·s and 0.1591 ± 0.0058 mPa·s
543.2 K | 0.1489 ± 0.011 mPa·s and 0.1487 ± 0.0058 mPa·s
553.2 K | 0.1375 ± 0.011 mPa·s and 0.1391 ± 0.0058 mPa·s
563.2 K | 0.1297 ± 0.011 mPa·s and 0.1305 ± 0.0058 mPa·s
573.2 K | 0.1201 ± 0.011 mPa·s and 0.1221 ± 0.0058 mPa·s
583.3 K | 0.1126 ± 0.011 mPa·s and 0.1141 ± 0.0058 mPa·s
593.2 K | 0.1031 ± 0.011 mPa·s and 0.1064 ± 0.0057 mPa·s
603.2 K | 0.0974 ± 0.011 mPa·s and 0.0987 ± 0.0057 mPa·s
613.2 K | 0.0913 ± 0.011 mPa·s and 0.0915 ± 0.0057 mPa·s
623.1 K | 0.0839 ± 0.011 mPa·s and 0.0849 ± 0.0057 mPa·s
633.2 K | 0.0767 ± 0.011 mPa·s and 0.0786 ± 0.0057 mPa·s
643.1 K | 0.0694 ± 0.011 mPa·s and 0.0714 ± 0.0057 mPa·s
653.2 K | 0.0657 ± 0.011 mPa·s and 0.065 ± 0.0057 mPa·s
663.2 K | 0.0605 ± 0.011 mPa·s and 0.0605 ± 0.0057 mPa·s
673.2 K | 0.0551 ± 0.011 mPa·s and 0.0548 ± 0.0057 mPa·s

CCCCCCCC [octane]
[1], 3100 kPa
Conditions | viscosity
303.2 K | 0.4913 ± 0.0058 mPa·s and 0.4948 ± 0.0048 mPa·s
313.3 K | 0.4426 ± 0.0057 mPa·s and 0.4431 ± 0.0046 mPa·s
323.2 K | 0.3961 ± 0.0053 mPa·s and 0.3979 ± 0.0042 mPa·s
333.2 K | 0.3634 ± 0.0051 mPa·s and 0.3617 ± 0.0038 mPa·s
343.2 K | 0.3311 ± 0.005 mPa·s and 0.3308 ± 0.0036 mPa·s
353.1 K | 0.3013 ± 0.0048 mPa·s and 0.3032 ± 0.0035 mPa·s
363.2 K | 0.2765 ± 0.0047 mPa·s and 0.2775 ± 0.0033 mPa·s
373.3 K | 0.254 ± 0.0046 mPa·s and 0.258 ± 0.0032 mPa·s
383 K | 0.234 ± 0.0045 mPa·s and 0.2379 ± 0.0031 mPa·s
393.1 K | 0.2205 ± 0.0045 mPa·s and 0.2202 ± 0.003 mPa·s
403.2 K | 0.2019 ± 0.0044 mPa·s and 0.204 ± 0.0029 mPa·s
413.2 K | 0.1905 ± 0.0044 mPa·s and 0.1902 ± 0.0028 mPa·s
423.2 K | 0.1761 ± 0.0044 mPa·s and 0.1775 ± 0.0028 mPa·s
433.1 K | 0.1643 ± 0.0043 mPa·s and 0.1642 ± 0.0027 mPa·s
443.2 K | 0.1526 ± 0.0043 mPa·s and 0.1514 ± 0.0026 mPa·s
453.1 K | 0.1417 ± 0.0043 mPa·s and 0.1428 ± 0.0026 mPa·s
463.2 K | 0.1321 ± 0.0043 mPa·s and 0.1318 ± 0.0026 mPa·s
473.1 K | 0.1228 ± 0.0042 mPa·s and 0.1241 ± 0.0025 mPa·s
483.1 K | 0.1138 ± 0.0042 mPa·s and 0.1152 ± 0.0025 mPa·s
493.1 K | 0.1068 ± 0.0042 mPa·s and 0.1072 ± 0.0025 mPa·s
503 K | 0.0993 ± 0.0042 mPa·s and 0.0983 ± 0.0025 mPa·s
513.2 K | 0.0901 ± 0.0042 mPa·s and 0.0904 ± 0.0024 mPa·s
523.3 K | 0.0825 ± 0.0042 mPa·s and 0.0826 ± 0.0024 mPa·s
533.4 K | 0.0753 ± 0.0041 mPa·s and 0.0751 ± 0.0024 mPa·s
543.4 K | 0.0678 ± 0.0041 mPa·s and 0.0678 ± 0.0024 mPa·s
553.4 K | 0.0607 ± 0.0041 mPa·s and 0.0609 ± 0.0024 mPa·s
563.3 K | 0.0532 ± 0.0041 mPa·s and 0.0534 ± 0.0024 mPa·s
573.3 K | 0.0444 ± 0.0041 mPa·s and 0.0446 ± 0.0024 mPa·s
583.1 K | 0.0325 ± 0.0041 mPa·s and 0.0323 ± 0.0024 mPa·s

CCCCCCCC [octane] + CCCCCCC
viscosity, [2]
Conditions | 100 kPa | 5000 kPa
303.5 K, x2 = 0.255 | 0.4422 ± 0.011 mPa·s and 0.4417 ± 0.0058 mPa·s | –
303.5 K, x2 = 0.51 | 0.4149 ± 0.011 mPa·s and 0.413 ± 0.0057 mPa·s | 0.4362 ± 0.011 mPa·s and 0.4357 ± 0.0057 mPa·s
303.9 K, x2 = 0.255 | – | 0.4663 ± 0.011 mPa·s and 0.4658 ± 0.0058 mPa·s
305.7 K, x2 = 0.759 | 0.3798 ± 0.011 mPa·s and 0.3784 ± 0.0055 mPa·s | 0.4032 ± 0.011 mPa·s and 0.4029 ± 0.0055 mPa·s
333.5 K, x2 = 0.51 | 0.3011 ± 0.01 mPa·s and 0.3026 ± 0.0053 mPa·s | –
333.8 K, x2 = 0.255 | 0.3234 ± 0.011 mPa·s and 0.3228 ± 0.0054 mPa·s | –
335.6 K, x2 = 0.759 | 0.2815 ± 0.01 mPa·s and 0.2806 ± 0.0052 mPa·s | –
363.4 K, x2 = 0.255 | 0.2447 ± 0.01 mPa·s and 0.2464 ± 0.0051 mPa·s | –
363.4 K, x2 = 0.51 | 0.2329 ± 0.01 mPa·s and 0.2323 ± 0.005 mPa·s | –
364.6 K, x2 = 0.759 | 0.2164 ± 0.01 mPa·s and 0.2169 ± 0.005 mPa·s | –
373.2 K, x2 = 0.255 | – | 0.2415 ± 0.01 mPa·s and 0.2402 ± 0.0051 mPa·s
373.2 K, x2 = 0.759 | – | 0.2181 ± 0.01 mPa·s and 0.2175 ± 0.005 mPa·s
373.6 K, x2 = 0.51 | – | 0.2277 ± 0.01 mPa·s and 0.2275 ± 0.0051 mPa·s
413.7 K, x2 = 0.51 | – | 0.1702 ± 0.01 mPa·s and 0.1698 ± 0.0048 mPa·s
413.9 K, x2 = 0.255 | – | 0.1792 ± 0.01 mPa·s and 0.1801 ± 0.0048 mPa·s
424.4 K, x2 = 0.759 | – | 0.1497 ± 0.01 mPa·s and 0.1493 ± 0.0048 mPa·s
472.5 K, x2 = 0.759 | – | 0.1071 ± 0.01 mPa·s and 0.1075 ± 0.0047 mPa·s
473.4 K, x2 = 0.51 | – | 0.1124 ± 0.01 mPa·s and 0.1125 ± 0.0047 mPa·s
473.5 K, x2 = 0.255 | – | 0.1186 ± 0.01 mPa·s and 0.1184 ± 0.0047 mPa·s
